Experimental data as given in patent US11154572B2, “Methods of treatment with natural killer cells matched for killer immunoglobulin receptor type” (Board of Regents, The University of Texas System, priority 2015, dated 2021).

Assays:
[1] = system: primary CD19+ tumor cells; test: Cytotoxicity (percent lysis) against tumor cells; type: cell-based, human; conditions: combination with CAR-transduced NK cells
Text: FIGS. 1A-1I: (A) CB NK cells were stably transduced with SFG.iCASP9.2A.CAR.CD19-28z.2A.[…]. Cell analysis for CD56 and CAR are shown from Day 10 to Day 44. (B) Histograms show NK receptor expression on ex vivo-expanded cord blood versus peripheral blood NK cells. NK receptors include KIR2DL2/DL3, KIR2DL1, NGK2A, NKP30, NKP44, and NKP46. (C) aAPC-expanded NK cells maintain an Eomes^hi and T-bet^hi phenotype. […] (G) NK cells co-expressing CAR.19-IL-15-iCasp9 form functional synapses with CD19^+ CLL cells. Cells are stained for Perforin, Phalloidin, and CAR and imaged by confocal microscopy. (H) CAR.19-IL-15-iCasp9 transduced CB-NK cells are more efficient at killing primary CD19^+ tumor cells. Percent lysis of tumor cells is shown at varying effector:target ratios of K562, Raji, and CLL cells. (I) The activity of cord blood-derived NK cells against primary CLL cells is enhanced with lenalidomide (Revlimid).
The immunological synapse in immune cells is a discrete structural entity that forms after the ligation of a specific activation receptor and enables the cell to progress through a series of biological steps that allow it to destroy cancer cells through the elaboration of the contents of NK cells lytic granules. To determine if the CAR-transduced NK cells formed immunological synapses with CD19^+ targets, the cells were stained with antiperforin, Phalloidin-F-actin and anti-CD19-CAR.

iC9/CAR19/IL15+ NK cells = test: Inducible caspase-9 suicide gene test, annexin-V-7AAD staining; type: cell-based, human; conditions: after 4 hours
Text: (C) CAR-NK cells home to sites of disease, such as the spleen, bone marrow, and liver, in a Raji engrafted mouse at Day 16 post-infusion. (D) CAR-NK cells persist in Raji engrafted mice at Day 70 post infusion. (E) CAR-transduced CB-NK cells show an anti-tumor effect in vivo in Raji-FFLuc mice from Day 0 to Day 14. (F) CAR-transduced CB-NK cells show an anti-tumor effect in vivo in Raji-FFLuc mice from Day 21 to Day 35. […] (H) Survival curve with different NK cell treatments. (I) CAR.19.IL15-iCasp9 transduced CB-NK cells are eliminated after activation of the suicide gene by exposure to the small molecule AP1903 after 4 hours.
Because of concerns over autonomous, uncontrolled NK-cell growth due to autocrine production of IL-15, a suicide gene based on the inducible caspase-9 (IC9) gene was incorporated into the construct. To test the inducible caspase-9 suicide gene that was incorporated into the retroviral vector, 10 nM of CID AP20187 was added to cultures of iC9/CAR19/IL15+ NK cells. The AP20187 induced apoptosis/necrosis of transgenic cells within 4 hours as assessed by annexin-V-7AAD staining (FIG. 2I).

SMILES	activity of CAR-transduced NK cells against patient-derived CLL cells on addition of lenalidomide [1]	elimination of CAR.19.IL15-iCasp9 transduced CB-NK cells after activation of the suicide gene (iC9/CAR19/IL15+ NK cells)
Nc1cccc2c1CN(C1CCC(=O)NC1=O)C2=O (centres unmarked) [lenalidomide]	enhanced synergistically	
CC[C@H](C(=O)N1CCCC[C@H]1C(=O)O[C@H](CCc1ccc(OC)c(OC)c1)c1cccc(OCC(=O)NCCNC(=O)COc2cccc([C@@H](CCc3ccc(OC)c(OC)c3)OC(=O)[C@@H]3CCCCN3C(=O)[C@@H](CC)c3cc(OC)c(OC)c(OC)c3)c2)c1)c1cc(OC)c(OC)c(OC)c1 [AP1903]		eliminated
